Reference: EP0908457B1, “3-(1,2-benzisothiazol- and isoxazol-5-Y1)-2,4(1H,3H)-pyrimidinedione or thione and 3-(1,2-benzisothiazol- and isoxazol-5-y1)-4(3H)-pyrimidinone or thione herbicidal agents” (BASF AKTIENGESELLSCHAFT, priority 1997, dated 1999)

Experiments:
Cyperus iria [1] = assay: Postemergence weed control under flooded paddy conditions, CYPIR (Rice Flatsedge); format: in vivo; settings: rated three to four weeks after treatment
Sagittaria pygmaea, L. [2] = assay: Postemergence weed control under flooded paddy conditions, SAGPY (Arrowhead (Pygmaea)); format: in vivo; settings: rated three to four weeks after treatment
[3] = test system: Monochoria vaginalis, Presl.; assay: Postemergence weed control under flooded paddy conditions, MOOVA (Monochoria); format: in vivo; settings: rated three to four weeks after treatment
[4] = test system: Echinochloa oryzoides (Ard.) Fritsch.; assay: Postemergence weed control under flooded paddy conditions, ECHORC (Watergrass (Calif.)); format: in vivo; settings: rated three to four weeks after treatment
[5] = test system: Oryza sativa, (L.) Tebonnet; assay: Rice tolerance to post-transplant applications under flooded paddy conditions (Example 188), ORYSAT (Rice, Tebonnet); settings: rated three to four weeks after treatment
[6] = test system: Cyperus serotinus, Rottb.; assay: Preemergence weed control under flooded paddy conditions, CYPSE (Flatsedge); format: in vivo; settings: for CYPSE: preemergence weeds, herbicidal effect rating 0-9, three to four weeks after treatment; for herbicidal effect rating, CYPSE: preemergence, rated three to four weeks after treatment; as to herbicidal effect rating, CYPSE: meaning of each grade not given here
[7] = test system: Oryza sativa, (L.) Tebonnet; assay: Rice tolerance to post-transplant applications under flooded paddy conditions (Example 187), ORYSAT (Rice, Tebonnet); settings: for ORYSAT: herbicidal effect rating 0-9, three to four weeks after treatment; for herbicidal effect rating, ORYSAT (rice tolerance): rated three to four weeks after treatment
[8] = test system: Cyperus serotinus, Rottb.; assay: Postemergence weed control under flooded paddy conditions, CYPSE (Flatsedge); format: in vivo; settings: rated three to four weeks after treatment
[9] = test system: Echinochloa oryzoides (Ard.) Fritsch.; assay: Preemergence weed control under flooded paddy conditions, ECHORC (Watergrass (Calif.)); format: in vivo; settings: flooded paddy; for ECHORC: preemergence weeds, herbicidal effect rating 0-9, three to four weeks after treatment; for herbicidal effect rating, ECHORC: preemergence, rated three to four weeks after treatment; as to herbicidal effect rating, ECHORC: meaning of each grade not given here
[10] = test system: Monochoria vaginalis, Presl.; assay: Preemergence weed control under flooded paddy conditions, MOOVA (Monochoria); format: in vivo; settings: flooded paddy; for MOOVA: preemergence weeds, herbicidal effect rating 0-9, three to four weeks after treatment; for herbicidal effect rating, MOOVA: preemergence, rated three to four weeks after treatment; as to herbicidal effect rating, MOOVA: meaning of each grade not given here
Sagittaria pygmaea, L. [11] = assay: Preemergence weed control under flooded paddy conditions, SAGPY (Arrowhead (Pygmaea)); format: in vivo; settings: flooded paddy; for SAGPY: preemergence weeds, herbicidal effect rating 0-9, three to four weeks after treatment; for herbicidal effect rating, SAGPY: preemergence, rated three to four weeks after treatment; as to herbicidal effect rating, SAGPY: meaning of each grade not given here
Cyperus iria [12] = assay: Preemergence weed control under flooded paddy conditions, CYPIR (Rice Flatsedge); format: in vivo; settings: flooded paddy; for CYPIR: preemergence weeds, herbicidal effect rating 0-9, three to four weeks after treatment; for herbicidal effect rating, CYPIR: preemergence, rated three to four weeks after treatment; as to herbicidal effect rating, CYPIR: meaning of each grade not given here

SMILES: CCCCC(=O)c1nsc2ccc(-n3c(=O)cc(C(F)(F)F)n(C)c3=O)cc12 [Example 431, 2,4(1H,3H)-Pyrimidinedione, 1-methyl-6-(trifluoromethyl)-3-(3-valeryl-1,2-benzisothiazol-5-yl)-]
- herbicidal effect rating, CYPIR (Cyperus iria [1]; Rate 0.0320 kg/ha): 4.0
- herbicidal effect rating, CYPIR (Cyperus iria [1]; Rate 0.0620 kg/ha): 7.0
- herbicidal effect rating, CYPIR (Cyperus iria [1]; Rate 0.1250 kg/ha): 9.0
- herbicidal effect rating, CYPIR (Cyperus iria [1]; Rate 0.2500 kg/ha): 9.0
- herbicidal effect rating, SAGPY (Sagittaria pygmaea, L. [2]; Rate 0.0320 kg/ha): 0.0
- herbicidal effect rating, SAGPY (Sagittaria pygmaea, L. [2]; Rate 0.0620 kg/ha): 0.0
- herbicidal effect rating, SAGPY (Sagittaria pygmaea, L. [2]; Rate 0.1250 kg/ha): 0.0
- herbicidal effect rating, SAGPY (Sagittaria pygmaea, L. [2]; Rate 0.2500 kg/ha): 4.0
- herbicidal effect rating, MOOVA ([3]; Rate 0.0320 kg/ha): 6.0
- herbicidal effect rating, MOOVA ([3]; Rate 0.0620 kg/ha): 9.0
- herbicidal effect rating, MOOVA ([3]; Rate 0.1250 kg/ha): 9.0
- herbicidal effect rating, MOOVA ([3]; Rate 0.2500 kg/ha): 9.0
- herbicidal effect rating, ECHORC ([4]; Rate 0.0320 kg/ha): 7.0
- herbicidal effect rating, ECHORC ([4]; Rate 0.0620 kg/ha): 9.0
- herbicidal effect rating, ECHORC ([4]; Rate 0.1250 kg/ha): 9.0
- herbicidal effect rating, ECHORC ([4]; Rate 0.2500 kg/ha): 9.0
- herbicidal effect rating, ORYSAT (rice tolerance) ([5]; Rate 0.0320 kg/ha): 3.0
- herbicidal effect rating, ORYSAT (rice tolerance) ([5]; Rate 0.0620 kg/ha): 3.0
- herbicidal effect rating, ORYSAT (rice tolerance) ([5]; Rate 0.1250 kg/ha): 3.0
- herbicidal effect rating, ORYSAT (rice tolerance) ([5]; Rate 0.2500 kg/ha): 7.0
- CYPSE ([6]; 0.0320 kg/ha): 0.0
- CYPSE ([6]; 0.0620 kg/ha): 4.0
- CYPSE ([6]; 0.1250 kg/ha): 7.5
- CYPSE ([6]; 0.2500 kg/ha): 9.0
- ORYSAT ([7]; 0.0320 kg/ha): 3.5
- ORYSAT ([7]; 0.0620 kg/ha): 5.5
- ORYSAT ([7]; 0.1250 kg/ha): 5.0
- ORYSAT ([7]; 0.2500 kg/ha): 6.5
- herbicidal effect rating, CYPSE ([8]; Rate 0.0320 kg/ha): 0.0
- herbicidal effect rating, CYPSE ([8]; Rate 0.0620 kg/ha): 0.0
- herbicidal effect rating, CYPSE ([8]; Rate 0.1250 kg/ha): 0.0
- herbicidal effect rating, CYPSE ([8]; Rate 0.2500 kg/ha): 4.0
- ECHORC ([9]; 0.0320 kg/ha): 8.0
- ECHORC ([9]; 0.0620 kg/ha): 9.0
- ECHORC ([9]; 0.1250 kg/ha): 8.5
- ECHORC ([9]; 0.2500 kg/ha): 9.0
- MOOVA ([10]; 0.0320 kg/ha): 9.0
- MOOVA ([10]; 0.0620 kg/ha): 9.0
- MOOVA ([10]; 0.1250 kg/ha): 9.0
- MOOVA ([10]; 0.2500 kg/ha): 9.0
- SAGPY (Sagittaria pygmaea, L. [11]; 0.0320 kg/ha): 3.5
- SAGPY (Sagittaria pygmaea, L. [11]; 0.0620 kg/ha): 5.5
- SAGPY (Sagittaria pygmaea, L. [11]; 0.1250 kg/ha): 7.5
- SAGPY (Sagittaria pygmaea, L. [11]; 0.2500 kg/ha): 9.0
- CYPIR (Cyperus iria [12]; 0.0320 kg/ha): 8.0
- CYPIR (Cyperus iria [12]; 0.0620 kg/ha): 9.0
- CYPIR (Cyperus iria [12]; 0.1250 kg/ha): 9.0
- CYPIR (Cyperus iria [12]; 0.2500 kg/ha): 9.0

SMILES: COC(=O)COc1ccc(C)cc1-c1nsc2ccc(-n3c(=O)cc(C(F)(F)F)n(C)c3=O)cc12 [Example 2, Methyl {{2-{5-[3,6-dihydro-3-methyl-4-(trifluoromethyl)-2,6-dioxo-1(2H)-pyrimidinyl]-1,2-benzisothiazol-3-yl}-p-tolyl}oxy}acetate]
- herbicidal effect rating, CYPIR (Cyperus iria [1]; Rate 0.0313 kg/ha): 9.0
- herbicidal effect rating, CYPIR (Cyperus iria [1]; Rate 0.0625 kg/ha): 9.0
- herbicidal effect rating, CYPIR (Cyperus iria [1]; Rate 0.1250 kg/ha): 9.0
- herbicidal effect rating, CYPIR (Cyperus iria [1]; Rate 0.2500 kg/ha): 9.0
- herbicidal effect rating, CYPIR (Cyperus iria [1]; Rate 0.5000 kg/ha): 9.0
- herbicidal effect rating, SAGPY (Sagittaria pygmaea, L. [2]; Rate 0.0313 kg/ha): 0.0
- herbicidal effect rating, SAGPY (Sagittaria pygmaea, L. [2]; Rate 0.0625 kg/ha): 0.0
- herbicidal effect rating, SAGPY (Sagittaria pygmaea, L. [2]; Rate 0.1250 kg/ha): 0.0
- herbicidal effect rating, SAGPY (Sagittaria pygmaea, L. [2]; Rate 0.2500 kg/ha): 2.0
- herbicidal effect rating, SAGPY (Sagittaria pygmaea, L. [2]; Rate 0.5000 kg/ha): 4.0
- herbicidal effect rating, MOOVA ([3]; Rate 0.0313 kg/ha): 9.0
- herbicidal effect rating, MOOVA ([3]; Rate 0.0625 kg/ha): 9.0
- herbicidal effect rating, MOOVA ([3]; Rate 0.1250 kg/ha): 9.0
- herbicidal effect rating, MOOVA ([3]; Rate 0.2500 kg/ha): 9.0
- herbicidal effect rating, MOOVA ([3]; Rate 0.5000 kg/ha): 9.0
- herbicidal effect rating, ECHORC ([4]; Rate 0.0313 kg/ha): 4.0
- herbicidal effect rating, ECHORC ([4]; Rate 0.0625 kg/ha): 4.0
- herbicidal effect rating, ECHORC ([4]; Rate 0.1250 kg/ha): 7.0
- herbicidal effect rating, ECHORC ([4]; Rate 0.2500 kg/ha): 9.0
- herbicidal effect rating, ECHORC ([4]; Rate 0.5000 kg/ha): 9.0
- herbicidal effect rating, ORYSAT (rice tolerance) ([5]; Rate 0.0313 kg/ha): 2.0
- herbicidal effect rating, ORYSAT (rice tolerance) ([5]; Rate 0.0625 kg/ha): 2.0
- herbicidal effect rating, ORYSAT (rice tolerance) ([5]; Rate 0.1250 kg/ha): 3.0
- herbicidal effect rating, ORYSAT (rice tolerance) ([5]; Rate 0.2500 kg/ha): 7.0
- herbicidal effect rating, ORYSAT (rice tolerance) ([5]; Rate 0.5000 kg/ha): 8.0
- herbicidal effect rating, CYPSE ([6]; 0.0313 kg/ha): 0.0
- herbicidal effect rating, CYPSE ([6]; 0.0625 kg/ha): 0.0
- herbicidal effect rating, CYPSE ([6]; 0.1250 kg/ha): 0.0
- herbicidal effect rating, CYPSE ([6]; 0.2500 kg/ha): 0.0
- herbicidal effect rating, CYPSE ([6]; 0.5000 kg/ha): 0.0
- herbicidal effect rating, ORYSAT (rice tolerance) ([7]; 0.0313 kg/ha): 2.0
- herbicidal effect rating, ORYSAT (rice tolerance) ([7]; 0.0625 kg/ha): 3.0
- herbicidal effect rating, ORYSAT (rice tolerance) ([7]; 0.1250 kg/ha): 3.0
- herbicidal effect rating, ORYSAT (rice tolerance) ([7]; 0.2500 kg/ha): 5.0
- herbicidal effect rating, ORYSAT (rice tolerance) ([7]; 0.5000 kg/ha): 9.0
- herbicidal effect rating, CYPSE ([8]; Rate 0.0313 kg/ha): 0.0
- herbicidal effect rating, CYPSE ([8]; Rate 0.0625 kg/ha): 0.0
- herbicidal effect rating, CYPSE ([8]; Rate 0.1250 kg/ha): 0.0
- herbicidal effect rating, CYPSE ([8]; Rate 0.2500 kg/ha): 0.0
- herbicidal effect rating, CYPSE ([8]; Rate 0.5000 kg/ha): 0.0
- herbicidal effect rating, ECHORC ([9]; 0.0313 kg/ha): 9.0
- herbicidal effect rating, ECHORC ([9]; 0.0625 kg/ha): 9.0
- herbicidal effect rating, ECHORC ([9]; 0.1250 kg/ha): 9.0
- herbicidal effect rating, ECHORC ([9]; 0.2500 kg/ha): 9.0
- herbicidal effect rating, ECHORC ([9]; 0.5000 kg/ha): 9.0
- herbicidal effect rating, MOOVA ([10]; 0.0313 kg/ha): 7.0
- herbicidal effect rating, MOOVA ([10]; 0.0625 kg/ha): 9.0
- herbicidal effect rating, MOOVA ([10]; 0.1250 kg/ha): 9.0
- herbicidal effect rating, MOOVA ([10]; 0.2500 kg/ha): 9.0
- herbicidal effect rating, MOOVA ([10]; 0.5000 kg/ha): 9.0
- herbicidal effect rating, SAGPY (Sagittaria pygmaea, L. [11]; 0.0313 kg/ha): 0.0
- herbicidal effect rating, SAGPY (Sagittaria pygmaea, L. [11]; 0.0625 kg/ha): 0.0
- herbicidal effect rating, SAGPY (Sagittaria pygmaea, L. [11]; 0.1250 kg/ha): 2.0
- herbicidal effect rating, SAGPY (Sagittaria pygmaea, L. [11]; 0.2500 kg/ha): 4.0
- herbicidal effect rating, SAGPY (Sagittaria pygmaea, L. [11]; 0.5000 kg/ha): 9.0
- herbicidal effect rating, CYPIR (Cyperus iria [12]; 0.0313 kg/ha): 8.0
- herbicidal effect rating, CYPIR (Cyperus iria [12]; 0.0625 kg/ha): 9.0
- herbicidal effect rating, CYPIR (Cyperus iria [12]; 0.1250 kg/ha): 9.0
- herbicidal effect rating, CYPIR (Cyperus iria [12]; 0.2500 kg/ha): 9.0
- herbicidal effect rating, CYPIR (Cyperus iria [12]; 0.5000 kg/ha): 9.0
